# According to ChEMBL document CHEMBL1909046, “DrugMatrix in vitro pharmacology data”:
# Columns and labels:
# [1] = DRUGMATRIX: ATPase, Na+/K+ enzyme inhibition (substrate: ATP); assay type: tissue-based, Sus scrofa, Heart; conditions: Not Active = under 50% inhibition at 10 µM
# [2] = DRUGMATRIX: Interleukin IL-1 radioligand binding (ligand: [125I] interleukin 1beta); assay type: cell membranes, Membrane; conditions: nih3t3; Not Active = under 50% inhibition at 10 µM
# [3] = molecular target: Acetylcholinesterase (Homo sapiens, UniProt P22303); experiment: DRUGMATRIX: Acetylcholinesterase enzyme inhibition (substrate: acetylthiocholine); assay type: cell-based, HEK293; conditions: hek293; Not Active = under 50% inhibition at 10 µM
# Acetylcholinesterase, sequence (P22303 whole entry): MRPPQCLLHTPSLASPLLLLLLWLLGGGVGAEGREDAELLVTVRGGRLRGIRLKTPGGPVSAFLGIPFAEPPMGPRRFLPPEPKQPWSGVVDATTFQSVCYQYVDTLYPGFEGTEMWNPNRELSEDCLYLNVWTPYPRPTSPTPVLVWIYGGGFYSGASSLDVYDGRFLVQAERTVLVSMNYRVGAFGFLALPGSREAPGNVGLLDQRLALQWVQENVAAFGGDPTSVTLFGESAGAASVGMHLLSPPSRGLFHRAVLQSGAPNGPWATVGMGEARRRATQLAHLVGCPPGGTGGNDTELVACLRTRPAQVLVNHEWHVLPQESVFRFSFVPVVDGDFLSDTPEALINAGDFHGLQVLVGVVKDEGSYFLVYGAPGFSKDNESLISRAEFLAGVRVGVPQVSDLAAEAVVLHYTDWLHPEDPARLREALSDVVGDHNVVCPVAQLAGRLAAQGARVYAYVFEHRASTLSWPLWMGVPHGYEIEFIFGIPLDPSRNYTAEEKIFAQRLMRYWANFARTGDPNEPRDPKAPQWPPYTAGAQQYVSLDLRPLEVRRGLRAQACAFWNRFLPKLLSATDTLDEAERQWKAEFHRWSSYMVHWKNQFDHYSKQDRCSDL
# [4] = molecular target: Glycine receptor (Rattus norvegicus, UniProt P22771+P24524+P07727+P20781); assay type: cell membranes, Wistar, Spinal cord, Membrane; note: in other assays of this panel Not Active means under 50% inhibition at 10 µM
# [5] = molecular target: Tyrosine-protein kinase Lck (Homo sapiens, UniProt P06239); experiment: DRUGMATRIX: Protein Tyrosine Kinase, LCK enzyme inhibition (substrate: Poly(Glu:Tyr)); assay type: cell-based, Insect cells; conditions: insect cells; Not Active = under 50% inhibition at 10 µM
# Tyrosine-protein kinase Lck, sequence (P06239 whole entry): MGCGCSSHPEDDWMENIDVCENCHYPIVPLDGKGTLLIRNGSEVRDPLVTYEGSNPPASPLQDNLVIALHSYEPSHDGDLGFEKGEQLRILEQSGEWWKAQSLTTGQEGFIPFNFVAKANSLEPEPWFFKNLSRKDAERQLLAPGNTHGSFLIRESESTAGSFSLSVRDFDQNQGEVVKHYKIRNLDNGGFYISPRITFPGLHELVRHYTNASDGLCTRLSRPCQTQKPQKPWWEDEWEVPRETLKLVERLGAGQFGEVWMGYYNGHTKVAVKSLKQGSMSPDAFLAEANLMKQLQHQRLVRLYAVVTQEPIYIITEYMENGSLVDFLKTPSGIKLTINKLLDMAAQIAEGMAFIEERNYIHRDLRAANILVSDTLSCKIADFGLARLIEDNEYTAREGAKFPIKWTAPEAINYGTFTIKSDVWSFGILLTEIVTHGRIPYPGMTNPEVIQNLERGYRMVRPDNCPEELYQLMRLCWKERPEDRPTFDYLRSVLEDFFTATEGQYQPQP
# [6] = molecular target: T1, Cathepsin G (Homo sapiens, UniProt P08311); assay type: tissue-based; conditions: neutrophil;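 note: inhibition of Cathepsin G enzyme activity, tested on an AMC-conjugated peptide substrate; in other assays of this panel Not Active means under 50% inhibition at 10 µM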
# T1 sequence (P08311 whole entry): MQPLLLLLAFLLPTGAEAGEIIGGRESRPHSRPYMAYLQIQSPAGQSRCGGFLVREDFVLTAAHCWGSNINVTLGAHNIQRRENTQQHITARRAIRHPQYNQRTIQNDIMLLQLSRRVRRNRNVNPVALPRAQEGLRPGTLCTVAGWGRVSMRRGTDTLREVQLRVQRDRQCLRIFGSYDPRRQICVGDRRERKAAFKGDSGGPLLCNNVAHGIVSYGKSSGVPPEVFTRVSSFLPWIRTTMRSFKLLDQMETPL
# [7] = molecular target: T2, 5-hydroxytryptamine receptor 2C (Homo sapiens, UniProt P28335); experiment: DRUGMATRIX: Serotonin (5-Hydroxytryptamine) 5-HT2C radioligand binding (ligand: [3H] Mesulergine); assay type: cell membranes, CHO-K1, Membrane; conditions: Not Active = under 50% inhibition at 10 µM
# T2 sequence (P28335 whole entry): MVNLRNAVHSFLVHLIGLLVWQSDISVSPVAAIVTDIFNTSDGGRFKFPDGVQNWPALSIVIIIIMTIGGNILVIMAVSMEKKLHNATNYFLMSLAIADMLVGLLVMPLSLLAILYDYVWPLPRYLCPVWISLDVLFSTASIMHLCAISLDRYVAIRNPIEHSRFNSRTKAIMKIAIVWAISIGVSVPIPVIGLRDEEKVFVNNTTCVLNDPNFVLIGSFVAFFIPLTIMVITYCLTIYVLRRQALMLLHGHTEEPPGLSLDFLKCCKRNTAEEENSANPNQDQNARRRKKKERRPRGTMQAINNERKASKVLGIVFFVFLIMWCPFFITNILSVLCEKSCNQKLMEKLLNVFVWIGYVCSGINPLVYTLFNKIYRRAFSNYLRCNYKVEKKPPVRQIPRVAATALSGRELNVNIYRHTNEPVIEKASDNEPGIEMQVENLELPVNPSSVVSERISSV
# [8] = molecular target: Melanocortin receptor 5 (Homo sapiens, UniProt P33032); assay type: cell membranes, HEK293, Membrane; conditions: hek293; note: in other assays of this panel Not Active means under 50% inhibition at 10 µM
# Melanocortin receptor 5, sequence (P33032 whole entry): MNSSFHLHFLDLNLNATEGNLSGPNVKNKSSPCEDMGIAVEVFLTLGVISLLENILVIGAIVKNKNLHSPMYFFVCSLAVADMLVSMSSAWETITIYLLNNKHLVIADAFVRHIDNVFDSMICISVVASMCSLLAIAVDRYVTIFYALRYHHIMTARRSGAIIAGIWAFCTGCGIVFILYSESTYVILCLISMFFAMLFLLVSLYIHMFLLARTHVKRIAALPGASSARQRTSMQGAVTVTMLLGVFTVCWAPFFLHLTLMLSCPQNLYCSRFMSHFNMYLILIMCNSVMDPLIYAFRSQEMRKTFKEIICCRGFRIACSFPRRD
# [9] = DRUGMATRIX: Purinergic P2X radioligand binding (ligand: [3H] alpha, beta-Methylene-ATP); assay type: cell membranes, Oryctolagus cuniculus, New Zealand albino, Urinary bladder, Membrane; conditions: Not Active = under 50% inhibition at 10 µM
# [10] = molecular target: T3, Adenosine receptor A1 (Homo sapiens, UniProt P30542); assay type: cell membranes, CHO, Membrane;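 note: radioligand binding assay at the adenosine A1 receptor, with DPCPX serving as the labelled ligand; in other assays of this panel Not Active means under 50% inhibition at 10 µM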
# T3 sequence (P30542 whole entry): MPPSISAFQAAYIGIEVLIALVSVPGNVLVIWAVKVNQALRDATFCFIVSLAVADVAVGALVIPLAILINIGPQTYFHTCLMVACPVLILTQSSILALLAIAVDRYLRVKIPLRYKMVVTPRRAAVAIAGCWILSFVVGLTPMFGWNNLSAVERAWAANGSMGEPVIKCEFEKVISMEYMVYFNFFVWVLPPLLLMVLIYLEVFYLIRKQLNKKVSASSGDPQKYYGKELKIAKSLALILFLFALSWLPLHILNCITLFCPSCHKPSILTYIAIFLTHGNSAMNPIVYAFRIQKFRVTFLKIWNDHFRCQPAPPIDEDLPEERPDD
# [11] = molecular target: T4, Neutrophil elastase (Homo sapiens, UniProt P08246); assay type: tissue-based
# T4 sequence (P08246 whole entry): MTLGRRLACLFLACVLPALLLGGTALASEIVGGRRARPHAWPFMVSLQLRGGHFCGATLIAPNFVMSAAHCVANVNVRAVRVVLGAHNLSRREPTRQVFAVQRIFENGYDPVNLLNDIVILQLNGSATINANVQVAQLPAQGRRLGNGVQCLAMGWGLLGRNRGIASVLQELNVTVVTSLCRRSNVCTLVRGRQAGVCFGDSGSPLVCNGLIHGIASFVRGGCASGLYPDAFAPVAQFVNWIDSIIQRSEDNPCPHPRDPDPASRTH
# [12] = molecular target: T5, Muscarinic acetylcholine receptor M2 (Homo sapiens, UniProt P08172); assay type: cell membranes, CHO-K1, Membrane; conditions: cho-k1; note: in other assays of this panel Not Active means under 50% inhibition at 10 µM
# T5 sequence (P08172 whole entry): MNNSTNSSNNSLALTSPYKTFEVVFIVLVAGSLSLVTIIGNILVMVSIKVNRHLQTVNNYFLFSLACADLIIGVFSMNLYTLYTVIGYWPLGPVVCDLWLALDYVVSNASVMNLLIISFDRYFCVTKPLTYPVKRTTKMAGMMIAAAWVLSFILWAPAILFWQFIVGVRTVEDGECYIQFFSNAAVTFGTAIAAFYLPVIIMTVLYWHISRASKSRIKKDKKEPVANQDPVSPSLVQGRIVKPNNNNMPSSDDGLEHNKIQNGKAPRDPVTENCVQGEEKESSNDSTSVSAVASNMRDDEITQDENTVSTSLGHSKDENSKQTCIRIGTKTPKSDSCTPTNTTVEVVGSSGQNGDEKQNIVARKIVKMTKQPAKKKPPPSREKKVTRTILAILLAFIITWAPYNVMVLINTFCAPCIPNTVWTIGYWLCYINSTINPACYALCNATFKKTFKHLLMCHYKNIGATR
# [13] = molecular target: Substance-P receptor (Homo sapiens, UniProt P25103); assay type: cell membranes, CHO, Membrane; conditions: cho; note: in other assays of this panel Not Active means under 50% inhibition at 10 µM
# Substance-P receptor, sequence (P25103 whole entry): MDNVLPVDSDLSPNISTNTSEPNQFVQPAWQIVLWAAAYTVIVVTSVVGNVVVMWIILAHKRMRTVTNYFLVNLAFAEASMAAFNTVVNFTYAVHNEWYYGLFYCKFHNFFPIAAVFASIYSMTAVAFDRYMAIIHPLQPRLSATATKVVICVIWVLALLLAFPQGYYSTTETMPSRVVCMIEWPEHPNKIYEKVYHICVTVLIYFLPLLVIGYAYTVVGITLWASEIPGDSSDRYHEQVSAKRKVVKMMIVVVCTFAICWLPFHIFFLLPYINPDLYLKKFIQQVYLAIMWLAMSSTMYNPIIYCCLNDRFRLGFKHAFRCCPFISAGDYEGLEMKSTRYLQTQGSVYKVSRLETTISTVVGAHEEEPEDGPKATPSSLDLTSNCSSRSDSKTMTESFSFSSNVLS
Structure (SMILES),IC50 [1],Ki [1],IC50 [2],Ki [2],IC50 [3],IC50 [4],IC50 [5],IC50 [6],IC50 ([7]; cho-k1),IC50 [8],IC50 [9],Ki [9],IC50 ([10]; cho),IC50 [11],IC50 [12],IC50 [13],other results
C[C@](N)(Cc1ccc(O)cc1)C(=O)O [METYROSINE],Not Active,Not Active,Not Active,Not Active,Not Active,Not Active,Not Active,Not Active,Not Active,Not Active,Not Active,Not Active,Not Active,Not Active,Not Active,Not Active,–
Clc1ccc(C(c2ccccc2Cl)C(Cl)Cl)cc1 (stereo unspecified) [MITOTANE],Not Active,Not Active,Not Active,Not Active,Not Active,Not Active,Not Active,Not Active,Not Active,Not Active,Not Active,Not Active,Not Active,Not Active,Not Active,Not Active,–
COc1c(C)c2c(c(O)c1C/C=C(\C)CCC(=O)OCCN1CCOCC1)C(=O)OC2 [MYCOPHENOLATE MOFETIL],Not Active,Not Active,Not Active,Not Active,Not Active,Not Active,Not Active,Not Active,Not Active,Not Active,Not Active,Not Active,Not Active,Not Active,Not Active,Not Active,–
COC(=O)C1=C(C)NC(C)=C(C(=O)OC)C1c1ccccc1[N+](=O)[O-] [NIFEDIPINE],Not Active,Not Active,Not Active,Not Active,Not Active,Not Active,Not Active,Not Active,–,Not Active,Not Active,Not Active,–,Not Active,Not Active,Not Active,IC50 ([7]; read-out: IC50): 18.3 µM; Ki ([7]; read-out: Ki): 9.57 µM; IC50 ([10]; read-out: IC50): 7.7 µM; Ki ([10]; read-out: Ki): 4.49 µM
NNc1ccccc1 [PHENYLHYDRAZINE],Not Active,Not Active,Not Active,Not Active,Not Active,Not Active,Not Active,Not Active,Not Active,Not Active,Not Active,Not Active,Not Active,Not Active,Not Active,Not Active,–
CC(=O)[C@H]1CC[C@H]2[C@@H]3CCC4=CC(=O)CC[C@]4(C)[C@H]3CC[C@]12C [PROGESTERONE],Not Active,Not Active,Not Active,Not Active,Not Active,Not Active,Not Active,Not Active,Not Active,Not Active,Not Active,Not Active,Not Active,Not Active,Not Active,Not Active,–
NC(=O)c1ncn([C@@H]2O[C@H](CO)[C@@H](O)[C@H]2O)n1 [RIBAVIRIN],Not Active,Not Active,Not Active,Not Active,Not Active,Not Active,Not Active,Not Active,Not Active,Not Active,Not Active,Not Active,Not Active,Not Active,Not Active,Not Active,–
O=[N+]([O-])c1cc([As](=O)(O)O)ccc1O [ROXARSONE],Not Active,Not Active,Not Active,Not Active,Not Active,Not Active,Not Active,Not Active,Not Active,Not Active,Not Active,Not Active,Not Active,Not Active,Not Active,Not Active,Ki [3]: Not Active; Ki [4]: Not Active; Ki [5]: Not Active; Ki [6]: Not Active; Ki ([7]; cho-k1): Not Active; Ki [8]: Not Active; Ki ([10]; cho): Not Active; Ki [11]: Not Active; Ki [12]: Not Active; Ki [13]: Not Active
CC[C@H]1OC(=O)[C@H](C)[C@@H](O[C@H]2C[C@@](C)(OC)[C@@H](O)[C@H](C)O2)[C@H](C)[C@@H](O[C@@H]2O[C@H](C)C[C@H](N(C)C)[C@H]2O)[C@](C)(O)C[C@@H](C)/C(=N\OCOCCOC)[C@H](C)[C@@H](O)[C@]1(C)O [ROXITHROMYCIN],Not Active,Not Active,Not Active,Not Active,Not Active,Not Active,Not Active,Not Active,Not Active,Not Active,Not Active,Not Active,Not Active,Not Active,Not Active,Not Active,–
